This is an account of results in patent publication US10111881B2 (priority 2016, dated 2018).

Like-named read-outs stand apart in the source and are kept apart here.

The test system of data set [1] is HeLa cells. It counts as cell-based, human. As to conditions: for Dextran Uptake: 50 μM.
For data set [2], the system named is Baby hamster kidney fibroblasts (BHK) cells. In words: Acridine orange assay for acidification blockers. It counts as cell-based.
Data set [3] has as its system HeLa cells.
The test system of a further data set is MARV. Put plainly: microbe, parasite or virus in culture. It counts as cell-based, Marburgvirus (Musoke strain).
Data set [4] deals with EBOV. In words: organism not typed. The data set is classed as cell-based, Zaire Ebolavirus (Mayinga strain). As to conditions: for EC50: read-out: EC50 for Ebolavirus inhibition.
For data set [5], the system named is EBOV. Put plainly: microbe, parasite or virus in culture. It counts as cell-based, Zaire Ebolavirus (Mayinga strain).
The test system of data set [6] is EBOV. The data set is classed as cell-based, Zaire Ebolavirus (Mayinga strain).
The subject of data set [7] is HeLa cells. The data set is classed as cell-based, human. As to conditions: for Transferrin uptake: 50 μM.
A further data set relates to Cathepsin. Put plainly: Cathepsin cleavage of GP.
The target of a further data set is T1, NPC1 C-loop (Homo sapiens, UniProt O15118).
T1 construct: C-loop
T1 sequence (O15118 372-620 limits assumed): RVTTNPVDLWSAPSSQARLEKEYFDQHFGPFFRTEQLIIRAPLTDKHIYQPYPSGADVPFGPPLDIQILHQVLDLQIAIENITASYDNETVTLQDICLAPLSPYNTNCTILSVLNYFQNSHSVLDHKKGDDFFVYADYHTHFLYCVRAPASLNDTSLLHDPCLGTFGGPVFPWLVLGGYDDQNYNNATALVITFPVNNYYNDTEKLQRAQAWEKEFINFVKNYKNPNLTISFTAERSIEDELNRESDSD
Put plainly: NPC1 C-loop binding.

The next data set deals with IL-1-Beta. The settings on record: PubChem / MLSMR data; cited from earlier work.
The next data set concerns Janus kinase 2. The settings on record: PubChem data; cited from earlier work.
The subject of the next data set is Synuclein. The settings on record: PubChem data; cited from earlier work.
The subject of a further data set is Shiga toxins A and B. As to conditions: cited from earlier work.
The target of another data set is MDM2/A (Homo sapiens, UniProt Q00987). As to conditions: MLSMR screening network data; cited from earlier work.
Another data set concerns the target T2, MDM4/1 (Homo sapiens, UniProt O15151).
T2 sequence (O15151 1-490): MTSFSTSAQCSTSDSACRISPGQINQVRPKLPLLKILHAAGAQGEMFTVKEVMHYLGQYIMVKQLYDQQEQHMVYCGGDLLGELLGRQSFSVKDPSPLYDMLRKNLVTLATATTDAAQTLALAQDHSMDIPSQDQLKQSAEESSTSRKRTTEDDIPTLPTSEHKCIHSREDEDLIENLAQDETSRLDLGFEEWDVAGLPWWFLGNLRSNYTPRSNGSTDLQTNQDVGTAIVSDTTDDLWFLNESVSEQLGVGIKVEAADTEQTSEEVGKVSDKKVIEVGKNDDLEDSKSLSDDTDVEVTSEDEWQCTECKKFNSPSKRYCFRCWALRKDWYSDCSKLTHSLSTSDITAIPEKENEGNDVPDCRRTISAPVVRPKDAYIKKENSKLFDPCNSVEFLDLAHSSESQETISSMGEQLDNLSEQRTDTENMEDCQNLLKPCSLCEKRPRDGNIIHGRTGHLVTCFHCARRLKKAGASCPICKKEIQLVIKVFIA
The settings on record: MLSMR screening network data; cited from earlier work.

In data set [8] the test system is HeLa cells. It counts as cell-based, human.
In a further data set the test system is EEA1-positive vesicles. The data set is classed as cell-based, human.
A further data set deals with LAMP1-positive vesicles. It counts as cell-based, human.
[9] abbreviates: Orthomarburgvirus, HeLa, read-out: IC-50 (MARV).
Setting [10] is: Orthomarburgvirus, HeLa, read-out: MARV HeLa IC50 (μM).
Setting [11] is: Zaire ebolavirus, HeLa, read-out: EBOV HeLa IC50 (μM).
Where [12] appears, read: Zaire ebolavirus, HeLa, read-out: IC-50 (EBOV).
[13] abbreviates: Zaire ebolavirus, Macrophage, read-out: Activity in macrophages IC50 (μM).
[14] abbreviates: read-out: Activity in macrophages IC50.

Sequence of MDM2/A (Q00987 whole entry, species assumed): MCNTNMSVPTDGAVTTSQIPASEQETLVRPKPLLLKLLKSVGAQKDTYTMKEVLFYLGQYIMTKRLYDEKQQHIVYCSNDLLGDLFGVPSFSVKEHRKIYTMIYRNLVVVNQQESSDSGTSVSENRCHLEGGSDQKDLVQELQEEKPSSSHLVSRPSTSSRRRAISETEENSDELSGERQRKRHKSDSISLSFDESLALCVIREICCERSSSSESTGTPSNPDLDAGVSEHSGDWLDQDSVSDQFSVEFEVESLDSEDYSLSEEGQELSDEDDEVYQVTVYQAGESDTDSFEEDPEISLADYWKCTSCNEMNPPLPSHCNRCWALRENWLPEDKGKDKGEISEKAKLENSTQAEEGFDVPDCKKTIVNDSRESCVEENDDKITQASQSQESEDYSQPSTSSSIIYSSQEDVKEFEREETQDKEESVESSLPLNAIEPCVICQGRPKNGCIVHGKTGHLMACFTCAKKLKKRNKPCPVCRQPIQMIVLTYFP

For `CCN(c1nc(N)c(C(=O)NC(=N)N)nc1Cl)C(C)C` [EIPA, reference compound], the “reduction of uptake of fluorescently labeled dextran” value in the data set on HeLa cells [1] was 95%. Also, in data set [2], the “effect on endosomal acidification” value is reported as “decreases endosomal acidification”. Also, the “toxic concentration (not toxic up to / toxic at)” value in the data set with HeLa cells [3] was 37 µM.
As a reminder, the EC50 is the concentration that produces a half-maximal response. As for `O=[N+]([O-])c1cc(S(=O)(=O)NCCN2CCOCC2)ccc1Sc1nnnn1-c1ccccc1` [MLS000394177, N-(2-morpholin-4-ylethyl)-3-nitro-4-(1-phenyltetrazol-5-yl)sulfanylbenzenesulfonamide], in the data set on MARV, the “Curve class (MARV)” value is given as 1.3 and the “MARV (Curve class)” value turned out to be 1.3. In addition, the IC50 in the data set with MARV (setting [9]) came out at 12.9 µM. Further, the IC50 in the data set on MARV (setting [10]) is 12.9 µM. In addition, in the data set on EBOV [4], the “Curve Class (EBOV)” value is given as 1.6; the “EBOV (curve class)” value is listed as 1.6; the “potency for Ebolavirus inhibition, times better than EIPA” value is reported as 25 times. Moreover, in the data set with EBOV [4] (HeLa), the EC50 is 1.9 µM. For the same compound, in the data set on EBOV [4] (setting [11]), the IC50 worked out at 1.9 µM. In the data set with EBOV [4] (setting [12]), the IC50 came to 1.89 µM. Also, in the data set on EBOV [5] (setting [13]), the IC50 amounted to 8.6 µM. Besides, in the data set with EBOV [6], the Surface interaction entry is reported as “+”, the Uninfected cell number came to 0, the “enhancement of virus interaction with cells” value stood at 44% and the “reduction of number of viral particles inside the cell body” value was determined as 62%. Moreover, in the data set on HeLa cells [1], the “reduction of uptake of fluorescently labeled dextran” value was “approximately 91%” and the “Dextran Uptake” value is “−”. Moreover, in the data set with HeLa cells [7], the “effect on transferrin uptake” value is reported as “no effect on transferrin uptake” and the Transferrin uptake stood at 0. Besides, in data set [2], the “Acidification Block” value was “+” and the “effect on endosomal acidification” value was “affected endosomal acidification”. In the data set with Cathepsin, this compound displayed a Cathepsin clevage of 0. For the same compound, the “NPC1 C-loop binding” value at NPC1 C-loop is recorded as 0. Moreover, the “toxic concentration (not toxic up to / toxic at)” value in the data set with HeLa cells [3] (human) was > 100 µM. In the data set with IL-1-Beta, the “secretion of IL-1-Beta” value is “inhibit secretion of IL-1-Beta”. Also, in the data set with Janus kinase 2, the “inhibition of Janus kinase 2 (JNK2)” value was “active”. For the same compound, the “Synuclein activity” value with Synuclein is listed as “active”. Further, the “Shiga toxins A and B” value in the data set on Shiga toxins A and B is listed as “active”. For the same compound, at MDM2/A, the “inhibition of MDM2/A” value is recorded as “identified as inhibitors”. At MDM4/1, the “inhibition of MDM4/1” value is reported as “identified as inhibitors”.
Regarding `N#Cc1c(NCCN)nc(-c2ccccc2)c2c1CCCC2` [MLS000534476], in the data set with MARV, the “Curve class (MARV)” value is on record as 1.3 and the “MARV (Curve class)” value amounted to 1.3. Also, the IC50 in the data set with MARV (read-out: IC-50 (MARV)) stood at 6.21 µM. Further, the IC50 with MARV (read-out: MARV HeLa IC50) amounted to 6.2 µM. In addition, in the data set with EBOV [4], the “Curve Class (EBOV)” value is 1.6 and the “EBOV (curve class)” value turned out to be 1.6. The IC50 with EBOV [4] (read-out: EBOV HeLa IC50) is 24.4 µM. In addition, in the data set with EBOV [4] (read-out: IC-50 (EBOV)), the IC50 turned out to be 24.4 µM. For the same compound, the IC50 in the data set with EBOV [5] (setting [14]) stood at 3.6 µM. Besides, in the data set on EBOV [6], the Surface interaction entry is reported as “−”, the Uninfected cell number result is recorded as “+”, the “decrease in total viral particles bound to cell surface” value is 55% and the “virus particle uptake” value is “reduced particle uptake”. In addition, the “decrease in transferrin binding to cells” value in the data set on HeLa cells [8] is > 55%. Further, in the data set with HeLa cells [1], the “Dextran Uptake” value amounted to 0. The Transferrin uptake result in the data set on HeLa cells [7] is listed as “−”. In [2], the “Acidification Block” value is given as “+” and the “effect on endosomal acidification” value is “affected endosomal acidification”. In the data set with Cathepsin, the Cathepsin clevage is recorded as 0 and the “GP cleavage by cellular proteases” value is given as “reduced GP cleavage”. Also, the “NPC1 C-loop binding” value at NPC1 C-loop is on record as 0. Further, at MDM2/A, the “inhibition of MDM2/A” value was “identified as inhibitors”. At MDM4/1, the “inhibition of MDM4/1” value is recorded as “identified as inhibitors”.
In the case of `CC(C)(C)c1nc2ccccc2c2nnc(SCC(=O)Nc3nccs3)n12` [MLS000555232], in the data set on MARV, the “Curve class (MARV)” value was 1.3 and the “MARV (Curve class)” value stood at 1.3. Besides, the IC50 with MARV (read-out: IC-50 (MARV)) amounted to 6.26 µM. Moreover, the IC50 in the data set with MARV (read-out: MARV HeLa IC50) was determined as 6.3 µM. Also, in the data set on EBOV [4], the “Curve Class (EBOV)” value worked out at 1.6 and the “EBOV (curve class)” value was determined as 1.6. Moreover, in the data set on EBOV [4] (read-out: EBOV HeLa IC50), the IC50 worked out at 1.7 µM. For the same compound, the IC50 in the data set on EBOV [4] (read-out: IC-50 (EBOV)) amounted to 1.74 µM. For the same compound, the IC50 with EBOV [5] (setting [14]) was 9.4 µM. In addition, in the data set with EBOV [6], the Surface interaction result is “+”, the Uninfected cell number amounted to 0, the “enhancement of virus interaction with cells” value came out at 89% and the “increase in virus particle binding to the cell surface” value is on record as ~2 fold. Moreover, the “Dextran Uptake” value in the data set with HeLa cells [1] is reported as 0. In the data set with HeLa cells [7], the “effect on transferrin uptake” value is on record as “do not inhibit transferrin uptake” and the Transferrin uptake stood at 0. In the data set with EEA1-positive vesicles, the “Effect on EEA1” value is “−” and the “reduction of colocalization of EBOV VLPs with EEA1-positive vesicles” value was 77%. Further, in the data set on LAMP1-positive vesicles, the “Effect on LAMP1” value was “−” and the “reduction of number of VLPs present in LAMP1-positive vesicles” value was determined as 89%. The “Acidification Block” value in [2] is “−”. This compound also came in with a Cathepsin clevage in the data set on Cathepsin of 0. For the same compound, the “NPC1 C-loop binding” value on NPC1 C-loop was determined as 0. The “inhibition of MDM2/A” value at MDM2/A was “identified as inhibitors”. For the same compound, the “inhibition of MDM4/1” value on MDM4/1 is “identified as inhibitors”.
For the compound `Cc1cc(-c2nn(-c3ccccc3F)cc2CN2CCN(c3ccncc3)CC2)c(C)s1` [MLS000733230, 1-[[3-(2,5-dimethylthiophen-3-yl)-1-(2-fluorophenyl)pyrazol-4-yl]methyl]-4-pyridin-4-ylpiperazine], in the data set on MARV, the “Curve class (MARV)” value amounted to 1.3 and the “MARV (Curve class)” value turned out to be 1.3. Further, the IC50 with MARV (setting [9]) worked out at 11.7 µM. In addition, in the data set with MARV (setting [10]), the IC50 was 11.7 µM. In addition, in the data set on EBOV [4], the “Curve Class (EBOV)” value was 1.3; the “EBOV (curve class)” value turned out to be 1.3; the “potency for Ebolavirus inhibition, times better than EIPA” value is on record as 7 times. For the same compound, in the data set with EBOV [4] (HeLa), the EC50 stood at 6.7 µM. Moreover, the IC50 with EBOV [4] (setting [11]) is 6.7 µM. Moreover, the IC50 in the data set with EBOV [4] (setting [12]) is 6.7 µM. The IC50 in the data set on EBOV [5] (setting [13]) was found to be 4.4 µM. Besides, in the data set on EBOV [6], the Surface interaction was 0, the Uninfected cell number is recorded as 0 and the “reduction of number of viral particles inside the cell body” value is on record as 91%. For the same compound, in the data set on HeLa cells [1], the “reduction of uptake of fluorescently labeled dextran” value is on record as “approximately 91%” and the “Dextran Uptake” value is recorded as “−”. In the data set with HeLa cells [7], the “effect on transferrin uptake” value is recorded as “no effect on transferrin uptake” and the Transferrin uptake amounted to 0. Also, in data set [2], the “Acidification Block” value was “+” and the “effect on endosomal acidification” value is reported as “affected endosomal acidification”. In the data set on Cathepsin, this compound registered a Cathepsin clevage of 0. For the same compound, the “NPC1 C-loop binding” value at NPC1 C-loop was 0. Moreover, the “toxic concentration (not toxic up to / toxic at)” value in the data set with HeLa cells [3] (human) was > 100 µM. The “secretion of IL-1-Beta” value with IL-1-Beta is on record as “inhibit secretion of IL-1-Beta”.
